Consider two compounds from publication PMC10328743, “5-Nitro-3-(2-(4-phenylthiazol-2-yl)hydrazineylidene)indolin-2-one derivatives inhibit HIV-1 replication by a multitarget mechanism of action” (Frontiers in Cellular and Infection Microbiology, 2023).

Broadly, the CC50 is the concentration that lowers cell viability or growth by half. A low value points to harm at low concentration.

One series concerns MT4 cells. Nature of the series: Viability of infected MT4 cells (cytotoxicity). It counts as cell-based. The settings on record: no toxicity up to the highest concentration tested. The procedure: (§1) HIV-1 replication was carried out in MT4 cells as previously reported ([Corona et al., 2016a]) using a molecular clone derived from the pNL4-3 ([Thierry et al., 2015]). A total of 120 ng of p24^gag antigen per 10^6 cells, corresponding to a multiplicity of infection (m.o.i.) of 0.3, was used for infection. […] Flow cytometry analysis was performed on a FACSCalibur flow cytometer (BD Biosciences, San Jose, CA, USA), and the results were analyzed using the […] software.

Series [1] can be described thus: Viability of infected MT4 cells (cytotoxicity). It counts as cell-based. The settings on record: human, MT4 cells infected with HIV-1; infected MT4 cells viability; three independent experiments, average ± standard deviation. On the procedure:
as §1

A further series concerns HIV-1. Nature of the series: Quantification of viral DNA genomes by qPCR in infected MT4 cells. Format: cell-based. The following applies: single HIV-1 replication cycle; for total viral DNA: increasing concentrations. On the procedure:
Quantitative PCR (qPCR) was performed as described previously ([Munir et al., 2013]). […] Cells were washed in phosphate-buffered saline (PBS), and dry cell pellets were frozen at −80°C until use. DNA from samples was purified with QIAamp DNA Blood mini kit (Qiagen, Valencia, CA, USA) according to the manufacturer’s instructions. Quantification of total viral DNAs, 2-LTR circular viral DNA (2-LTRc), and integrated DNAs was performed on a LightCycler instrument (Roche Diagnostics, Basel, Switzerland) using the second-derivative-maximum method provided by the LightCycler quantification software, version 3.5 (Roche Diagnostics). Amplification of the β-globin gene (two copies per diploid cell) was performed to normalize the results using the commercially available materials (Control kit DNA; Roche Diagnostics). The quantification of the results for 2-LTRc and total HIV-1 DNA was expressed as copy numbers per µg DNA. Integrated HIV-1 DNA was expressed as a percentage of wt control. Data were represented by mean and standard deviation of two independent experiments; p-values were calculated between the infected and infected-treated conditions by unpaired, two-tailed t-tests using GraphPad Prism Version 9.5.1 software (GraphPad Software, Inc., San Diego, CA, USA). Figures were drawn with GraphPad Prism Version 9.5.1.

Series [2] has as its target T1, HIV-1 IN (LEDGF/p75-dependent) (Human immunodeficiency virus type 1 group M subtype B, UniProt P12497).
T1 construct: Preparation of recombinant full-length IN and LEDGF proteins; made in house; host or cells: E. coli BL21(DE3)
Nature of the series: biochemical. The following applies: strand-transfer activity in the presence of LEDGF/p75; for IC50: read-out: IC50 IN LEDGF-dependent integration. It counts as biochemical. The procedure:
(§2) Proteins were expressed in E. coli BL21(DE3). Briefly, His-IN was purified by loading the precipitate of cell lysate onto a Ni-Sepharose column and eluting with a […] imidazole gradient (0–500 mM) in a HEPES buffer (50 mM, pH 7.5) containing NaCl (1 M), CHAPS (7.5 mM), and β-mercaptoethanol (2 mM). FLAG-IN was purified by loading the precipitate of cell lysate onto a phenyl-sepharose and ammonium sulfate gradient (0–800 mM) in a HEPES (pH 7.5, 50 mM) buffer containing NaCl (200 mM), CHAPS (7.5 mM), and β-mercaptoethanol (2 mM). Peak fractions were pooled, loaded onto a heparin column, and eluted with an increasing NaCl gradient (200 mM to 1 M) in a HEPES (pH 7.5, 50 mM) buffer containing CHAPS (7.5 mm) and β-mercaptoethanol (2 mM). Fractions containing integrase were pooled and stored in glycerol (10%) at −80°C.
(§3) Briefly, IN (50 nM) was preincubated with increasing concentrations of compounds for 1 h at room temperature in a reaction buffer containing HEPES (20 mM, pH 7.5), DTT (1 mM), glycerol (1%), MgCl2 (20 mM), Brij-35 (0.05%), and bovine serum albumin (BSA) (0.1 mg/ml).

Series [3] concerns the target T2, HIV-1 IN (LEDGF-independent) (Human immunodeficiency virus type 1 group M subtype B, UniProt P12497).
T2 construct: Preparation of recombinant full-length IN and LEDGF proteins; made in house; host or cells: E. coli BL21(DE3)
Nature of the series: biochemical. The settings on record: strand-transfer activity with omission of LEDGF/p75; read-out: IC50 IN LEDGF-independent integration. The procedure:
as §2, §3

Take `O=C1Nc2ccc(Cl)cc2/C1=N/Nc1nc(-c2ccc(Cl)c(Cl)c2)cs1` [9b]: the “toxicity against MT4 cells” value with MT4 cells was > 100 µM. Besides, in series [1], the CC50 is > 100 µM. In the series with HIV-1, the “DNA 2LTRc levels” value was “no increase” and the “total viral DNA” value is given as “decrease in total viral DNA”. For the same compound, in series [2], the “IC50 IN LEDGF-dependent integration” value was “not able to inhibit IN” and the IC50 is > 100 µM. Besides, the IC50 in series [3] is > 100 µM.
For `Cc1ccc(-c2csc(N/N=C3\C(=O)Nc4ccc([N+](=O)[O-])cc43)n2)cc1` [10a], the “toxicity against MT4 cells” value in the series with MT4 cells was > 100 µM. The CC50 in series [1] is > 100 µM. Moreover, in the series on HIV-1, the “DNA 2LTRc levels” value was “marked increase” and the “total viral DNA” value was “decrease in total viral DNA”. The “integrated viral DNA” value in the series with HIV-1 (48 h) is “significantly more marked effect than 9b”. In addition, in series [2], the IC50 amounted to 32.3 ± 2.7 µM. The IC50 in series [3] came out at 35.5 ± 1.5 µM.
